# Key:
# [1] = cited from earlier work
# Description: P. aeruginosa (PAE) is a Gram‐negative bacterium that has been ranked by WHO as one out of three pathogens with the highest global priority for the development of novel effective antibacterials.[17] PAE is a major cause of both acute and chronic lung infections, which develop in up to 60%–70% of cystic fibrosis (CF) patients, often leading to a more rapid decline of lung function that turns into greater morbidity and mortality.[18], [19], [20] The misuse of classical antibiotics, whose mechanism of action is usually based on the interaction with a well‐defined ligand binding site, led to an ev ... || These observations supported our hypothesis that PMP1 should be able to bind to YeaZ and consequently reduce its ability to form protein complexes, thus impairing its function. […] Indeed, the PMP2 peptide derives from the PMP1 sequence RIAIGVVQGLAFAL (Arg73‐Leu86) and thus contains the four hot ...
# YeaZ homodimer = test: Analytical size exclusion chromatography (SEC); assay type: binding, Pseudomonas aeruginosa; details: peptide 200 μM, 2% DMSO, YeaZ 0.5 mg/ml
# Protocol: Briefly, the YeaZ protein was produced in E. coli M15[pREP4] strain using a pQE30‐PaYeaZ plasmid. Cells were grown in LB medium at 37°C till the OD600 reached 0.6, then the protein expression was induced by isopropyl‐β‐D‐thiogalactoside (IPTG) at a final concentration of 0.1 mM for 5 h at 30°C. After cell collection, the pellet was resuspended in a lysis buffer containing 50 mM phosphate buffer, 150 mM NaCl, and 10 mM imidazole, pH 7.4. Cells were subsequently disrupted by a French press disruptor (20 bar pressure), and one tablet of protease inhibitor (Roche), 10 mg/ml DNase I, and 5 mg/ml Ribonuclease A were added to the solution. After centrifugation at 18,000 rpm for 45 min, the supernatant was collected, filtered, and loaded onto a Ni‐NTA Superflow (GE Healthcare Life Science). […]
# To evaluate the binding of PMP2 in vitro, the recombinant His‐tagged YeaZ protein from PAE PAO1 was produced in E. coli and purified with final purity and yield values adequate for the binding studies. […] The interaction with the protein was first evaluated by exploiting the intrinsic fluorescence of the tryptophan residues (ITF) contained in the protein's amino acid sequence. […]
# P. aeruginosa PAO1 = test: Bacterial growth inhibition assay, P. aeruginosa PAO1; assay type: cell-based, Pseudomonas aeruginosa; details: 3, 10, 30 μM; Mueller Hinton Broth, 37°C, OD595 every 15 min; mean of three independent experiments
# Protocol: (§1) Growth inhibition experiments were performed with P. aeruginosa PAO1 strain[37] and Escherichia coli K‐12 MG1655.[38] Cells were grown overnight in 10 ml of LB medium at 37°C with shaking. Overnight cultures were washed twice with phosphate‐buffered saline (PBS) and inoculated to an optical density at 595 nm (OD595) of 0.05 in 10 ml of Mueller Hinton Broth (Sigma‐Aldrich). Aliquots (200 μl) of inoculated medium were distributed in triplicate (technical replicates) in a 96‐Well Cellstar® suspension culture plate (Greiner Bio‐One) and incubated in a Sunrise microplate reader (Tecan Group) at 37°C with constant orbital shaking and real‐time OD595 measurements every 15 min. Three final peptide concentrations were tested: 3, 10, and 30 μM, respectively. Controls were made by adding sterilized water, in the same amount of the added peptide volumes. Three independent replicates were performed. Data were reported by plotting, at each time point, the mean OD595 values of the three replicates with error bars indicating Standard Error of Mean (SEM).
# YeaZ [2] = test: Intrinsic tryptophan fluorescence (ITF) binding assay; parameters: species or system Pseudomonas aeruginosa
# Protocol: Briefly, the YeaZ protein was produced in E. coli M15[pREP4] strain using a pQE30‐PaYeaZ plasmid. Cells were grown in LB medium at 37°C till the OD600 reached 0.6, then the protein expression was induced by isopropyl‐β‐D‐thiogalactoside (IPTG) at a final concentration of 0.1 mM for 5 h at 30°C. After cell collection, the pellet was resuspended in a lysis buffer containing 50 mM phosphate buffer, 150 mM NaCl, and 10 mM imidazole, pH 7.4. Cells were subsequently disrupted by a French press disruptor (20 bar pressure), and one tablet of protease inhibitor (Roche), 10 mg/ml DNase I, and 5 mg/ml Ribonuclease A were added to the solution. After centrifugation at 18,000 rpm for 45 min, the supernatant was collected, filtered, and loaded onto a Ni‐NTA Superflow (GE Healthcare Life Science). YeaZ was further purified using a Superdex 75 gel filtration column (GE Healthcare Life Science) in buffer 50 mM Hepes pH 7.4, 150 mM NaCl at a concentration of 0.5 mg/ml, in which freshly purified protein exists as a monomer in solution, and stored at −80°C.
# Spectrofluorometric assays were performed on a Varian Cary Eclipse fluorescence spectrophotometer (Agilent Technologies) at 20°C. YeaZ was used at a final concentration of 0.065 mg/ml in buffer Hepes 50 mM pH 7.4, NaCl 500 mM, 10% glycerol (with 2% v/v DMSO as control), while the peptides were used at a final concentration of 200 μM. We used an excitation wavelength of 280 nm and registered the fluorescence emission spectra between 300 and 400 nm. Measures were performed in triplicates.
# To evaluate the binding of PMP2 in vitro, the recombinant His‐tagged YeaZ protein from PAE PAO1 was produced in E. coli and purified with final purity and yield values adequate for the binding studies. Compound PMP2 was dissolved to 10mM with 100% DMSO and tested in in vitro assays at a final concentration of 200 μM (corresponding to a DMSO concentration of 2%). The interaction with the protein was first evaluated by exploiting the intrinsic fluorescence of the tryptophan residues (ITF) contained in the protein's amino acid sequence. […] Analytical size exclusion chromatography (SEC) was then run to evaluate the peptide's ability to disrupt or interfere with the formation of the homodimers. The YeaZ protein alone eluted at a volume corresponding mainly to its dimeric form (estimated molecular weight of 51 kDa of the main peak) and the effect of 2% v/v DMSO was irrelevant.
# (§2) PMP3 was then dissolved to 1mM in MilliQ water and evaluated in vitro in ITF assays. […] To further investigate the binding with PMP3, we performed a concentration‐response curve increasing the amounts of peptide. […] We thus performed an MST assay exploiting the perturbation of thermal diffusion at 650 nm plotted against the peptide concentration. The MO.
# [3] = system: Escherichia coli K‐12 MG1655; test: Bacterial growth inhibition assay, E. coli MG1655; assay type: cell-based; details: 3, 10, 30 μM; Mueller Hinton Broth, 37°C, OD595 every 15 min; mean of three independent experiments
# Protocol: as §1
# [4] = Solubility, hydrophobicity and aggregation of the peptides; assay type: physicochemical
# [5] = previous work; cited from earlier work
# Description: Since the PPIs and hot spots involved in the PAE YeaZ homodimer are conserved in the YeaZ/YgjD heterodimer,[21], [25], [26] we hypothesized that PMP1 might also represent a good starting point to target the YeaZ/YgjD interface. In this work, we report our studies focused on the PPIs involved in the formation of the TC‐complex and their possible inhibition by PMP1 derivatives. The final aim was the interference of t^6A37 biosynthesis and, consequently, the achievement of bacterial growth impairment.
# [6] = Circular dichroism analysis; assay type: physicochemical; details: 20 μM, 20°C
# Protocol: CD spectra were acquired on a JASCO J‐715 spectropolarimeter in a 1‐mm quartz cuvette, under N2, between 260 and 185 nm, at 20°C with 0.5 nm intervals, and 3 measurements were accumulated (settings: 100 mdeg sensitivity, continuous scan mode, 50 nm/min scan speed, 2 s response, bandwidth 1.0 nm). The resulting signal was converted from ellipticity (mdeg) to molar ellipticity [Q] in deg · cm^2 · dmol^−1. Peptides were solubilized in 100% MilliQ water or 1:1 water/TFE at 20 μM concentration. The helical propensity [R] was calculated using the R‐value, i.e. the ratio between molar ellipticity values at 222 and 207 nm, where R = 1 is defined as a reference for an ideal α‐helix.
# YeaZ [7] = test: Microscale thermophoresis (MST) assay; assay type: binding, Pseudomonas aeruginosa; details: 50 nM RED‐NHS labeled YeaZ, Hepes 50 mM pH 7.4, NaCl 500 mM, 10% glycerol, 0.05% Tween20, 24°C, 650 nm, triplicates; saturation plateau not reached, precise value not calculable
# Protocol: Microscale thermophoresis (MST) experiments were performed using a Monolith X apparatus (NanoTemper Technologies GmbH, Munich, Germany) and analyzed with the MO. Affinity Analysis software (NanoTemper Technologies GmbH). Briefly, YeaZ was labeled with the red fluorescent dye RED‐NHS 2° generation according to manufacturer instructions. MST measurements were performed in triplicates at 24°C on in Hepes 50 mM pH 7.4, NaCl 500 mM, 10% glycerol, and 0.05% Tween20, using premium‐treated glass capillaries and at a fixed concentration of 50 nM YeaZ. Results were merged and analyzed.
# as §2
# [8] = target: YeaZ protein from P. aeruginosa PAO1, recombinant His-tagged (P. aeruginosa PAO1); test: SEC; analytical, Superdex75 Increase 10/300 GL, Hepes 50 mM pH 7.4, NaCl 500 mM, 10% glycerol; YeaZ 0.5 mg/ml (2% DMSO as control); peptide at 200 μM
substance,measurement,setting,value
AIAIGVVQGLAFAL‐GG‐KKKG [PMP2],self‐assembly,[1]; by fine‐tuning of the environmental conditions,capable of self‐assembling in helical nanofibers and 2D sheets as well as forming hydrogels
same,estimated molecular weight of the YeaZ dimeric peak (SEC),"YeaZ homodimer; Hepes 50 mM pH 7.4, NaCl 500 mM, 10% glycerol, Superdex75 Increase 10/300, YeaZ alone 51 kDa",49 kDa
same,effect on the YeaZ dimeric peak (SEC),YeaZ homodimer; pH 7.4,slight shift of the dimeric peak towards a smaller molecular weight
same,growth inhibition of PAE PAO1,P. aeruginosa PAO1,no effect of growth inhibition could be observed
same,fluorescence emission of YeaZ in presence of peptide (ITF),"YeaZ [2]; peptide 200 μM, 2% DMSO, YeaZ 0.065 mg/ml, Hepes 50 mM pH 7.4, NaCl 500 mM, 10% glycerol, 20°C, excitation 280 nm, emission 300-400 nm, triplicates",decreased fluorescence emission spectrum compared to the protein alone
same,growth inhibition of E. coli MG1655,[3],no effect of growth inhibition could be observed
same,solubility,"[4]; any tested solvent (H2O, 100% DMSO, 10 mM NaOH)",poor solubility
same,aggregation,"[4]; in solution at higher concentrations, prevented evaluation of a dose–response constant",formation of aggregates in solution at higher concentrations
same,helicity outside the protein environment,[5],maintain helicity outside the protein environment
AIAIGVVQGLAFAL‐GG‐[R‐Ahx‐R]4‐Ahx‐β‐Ala [PMP3],secondary structure by CD,[6]; 1:1 water/TFE,a clear α‐helix conformation was observed
same,secondary structure by CD,[6]; 100% MilliQ water,did not show any particular secondary structure
same,helical propensity R,"[6]; ratio of molar ellipticity at 222 and 207 nm (R = 1 ideal α‐helix), 1:1 water/TFE",0.78
same,growth inhibition of PAE PAO1,P. aeruginosa PAO1,significant concentration‐dependent decrease in the growth rates
same,intrinsic fluorescence of the peptide,"YeaZ [2]; above a concentration threshold, at 310–340 nm, prevented concentration‐response evaluation",higher than the intrinsic fluorescence of the YeaZ protein
same,fluorescence intensity of YeaZ in presence of peptide (ITF),"YeaZ [2]; peptide 200 μM, from 1mM in MilliQ water, YeaZ 0.065 mg/ml, Hepes 50 mM pH 7.4, NaCl 500 mM, 10% glycerol, 20°C, excitation 280 nm, triplicates",reduction of the fluorescence intensity
same,"shift of emission towards shorter wavelengths (ITF), wavelength","YeaZ [2]; peptide 200 μM, from 1mM in MilliQ water, YeaZ 0.065 mg/ml, pH 7.4, 20°C, slight shift",around 330 nm
same,growth inhibition of E. coli MG1655,[3],much weaker than those observed for PAO1
same,Kd (MST),YeaZ [7],low micromolar
"YeaZ protein from P. aeruginosa PAO1, recombinant His-tagged (from UniProt A0A0H2ZEW0 1-226) (natural protein)",stoichiometry N,[8],2
AIAIGVVQGLAFAL [PMP1],hydrophobicity,[1],too hydrophobic

# Reference: paper PMC11669939, “Impairing protein–protein interactions in an essential tRNA modification complex: An innovative antimicrobial strategy against Pseudomonas aeruginosa” (Journal of Peptide Science, 2024)
